In patent US9675068B2, “Solid form sodium lauryl sulfate (SLS) crawling pest elimination composition” (ECOLAB USA INC., priority 2008, dated 2017):

Assay: Ability of SLS forms to go into solution in water
Assay type: physicochemical
Settings: at 12% and 18%
Text: In one embodiment, the pesticide composition of the present invention includes a combination of sodium lauryl sulfate (SLS) and water. In particular, the pesticide composition includes a combination of a solid form of sodium lauryl sulfate and water. Suitable component concentrations for a concentrate of the pesticide composition include between about 90% and about 100% sodium lauryl sulfate by weight and balance water, particularly between about 93% and about 100% sodium lauryl sulfate by weight and balance water and more particularly between about 95% and about 100% sodium lauryl sulfate by weight and balance water. Suitable component concentrations for a use solution of the pesticide composition include between about 1% and about 10% sodium lauryl sulfate by weight and balance water and particularly between about 1% and about 6% sodium lauryl sulfate by weight and balance water. At concentrations higher than about 12% by weight sodium lauryl sulfate, solid form sodium lauryl sulfate may not effectively form a solution. In other embodiments, similar intermediate concentrate and use concentrations may also be present in the cleaning compositions of the invention.
The compositions of Examples 1, 2 and 3 are compositions of the present invention using needle form sodium lauryl sulfate (SLS) as the active ingredient in a pesticide composition. […]

going into solution in water: would not go into solution
SMILES: CCCCCCCCCCCCOS(=O)(=O)[O-].[Na+] [needle form SLS, sodium lauryl sulfate]
